Values joined by “and” are separate entries in the source; they are usually repeats but may differ in a detail not shown here. Equal entries are not always repeated. Where two headings read alike, the source gives them in different places.
How the values were obtained:
H4-LC3 cells = assay type: cell-based
Text: H4 cells were transfected with the LC3-GFP fusion protein, thereby creating, screening, and yielding an H4-LC3 cell line as a screening platform in order to perform high-content screening of 480 known bioactive compounds (ICCB known bioactive library, BIOMOL), using the following method. DMSO was used to dilute, dissolve, and prepare a compound at different concentrations with each concentration repeated three times. A 96-well plate was inoculated with H4-LC3 cells at an appropriate density and treated for 24 hours with the compound. […] If a compound affected LC3 expression or distribution, then this would be embodied precisely in the image and in the size and intensity of fluorescent spots and the like numerical values. This experiment was repeated three times, and the 72 compounds for which LC3-GFP fluorescent intensity was more than 50% greater than that of the blank control group in the three experiments were selected for analysis. Based on the number of cells determined through counting, those compounds in which cell death exceeded 30% (in comparison with the control group) were eliminated. The remaining compounds were further studied as candidate molecules.

GFP-polyQ-HA = experiment: Degradation of expanded polyglutamine (GFP-polyQ-HA) in transfected H4 cells, anti-HA blot; assay type: cell-based
Experimental: Large-scale accumulation of misfolded protein is a prominent feature of many neurodegenerative diseases. For example, the pathogenic mechanism of Huntington's disease is that a large amount of polyglutamine (polyQ) protein accumulates in the neurons and cannot be cleared away. Tests of polyQ elimination and degradation were used in this experiment to further determine the ability if the tested compounds to induce autophagy.
The compounds selected through screening were dissolved in DMSO and diluted in a stepwise manner in complete culture medium.

LC3 II = experiment: Western blot of LC3 II in H4-LC cells; assay type: cell-based
Text: The autophagosome marker LC3 used in the compound-screening platform was subjected to the foregoing processing in the cytosol. Generally when the new LC3 synthesized within the cell was processed, it became cytosolic soluble LC3 I with molecular weight 18 Kd. […] The quantity of LC3 II content reflects to a certain degree the autophagic activity of a cell. Therefore, by assaying the content of LC3 II in the cell by means of the Western blot method, it is possible to further reflect the effect of the compound on autophagy.
H4-LC cells at an appropriate density were inoculated onto a 6-well plate, which was treated with a compound for 4 hours, after which the cells were collected and lysed. The protein fraction was harvested and SDS-PAGE was performed. Following electrophoresis separation the proteins were transferred to a membrane, and immunoblot analysis was performed. The cytoskeleton protein, actin, was used as an internal control.

FYVE-RFP = experiment: High-content analysis of FYVE-RFP fluorescence (PI(3)P level) in H4-FYVE cell line; assay type: cell-based
Text: Class III PI(3)K Vps34 is a multifunctional protein. On the one hand, it catalyzes the phosphorylation of PI to generate PI(3)P and is of key importance in the endocytic and autophagosome membrane transport processes. At the same time, a compound formed from Vps34/beclin1 is involved in the regulation of autophagy initiation signaling. Therefore, while the autophagy process is taking place, the level of PtdIns(3)P should not be expected to decrease to a significant extent. A FYVE domain is a protein structure domain composed of approximately 70 amino acid residues and containing a zinc finger protein structure; it can bind specifically with PI(3)P. Generally, PI(3)P recruits proteins containing a FYVE domain in order to bind to the membrane of cellular organelles, and participate in protein trafficking and similar processes.
H4 cells were transfected with the fusion protein FYVP-red fluorescent protein (FYVE-RFP). After transfection, the cells were screened in order to obtain a suitable H4-FYVE cell line to be used as a screening platform to perform high-volume screening of compounds, which thereby indirectly reflected the effect of the compound on autophagy. Compounds which reduced FYVE-RFP fluorescence intensity were eliminated. In this experiment, change in the intensity, fluorescence and distribution of the protein marker FYVE-RFP recruited by PI(3)P before and after treatment with the potential autophagy inducing compound was assayed by high-content microscopic analysis.
DMSO was used to dilute, dissolve, and prepare a compound at different concentrations with each concentration repeated three times. A 96-well plate was inoculated with H4-FYVE cells at an appropriate density and treated with the compound for 2, 4, and 8 hours, respectively. […] If a compound affected FYVE expression or distribution, then this would be embodied precisely in the image and in the size and intensity of fluorescent spots and other numerical values.

long-lived proteins = experiment: Degradation of (3H) L-leucine labelled long-lived proteins in H4 cells; assay type: cell-based; settings: relative to blank control
Text: The process of autophagy is a protein degradation process, which primarily mediates the degradation of cellular organelles and long-lived proteins within the cell. Therefore, in the present experiment the detection of whether a compound promotes the degradation of long-lived proteins within the cell was used as an additional indicator of whether the tested compound induces autophagy.
DMSO was used to dilute, dissolve, and prepare a compound at different concentrations with each concentration repeated three times. A 96-well plate was inoculated with H4 cells at an appropriate density and treated with the compound for 2, 4, and 24 hours, respectively. […] One day prior to the experiment, cells were inoculated onto a 12-well plate at an appropriate density and cultured under normal conditions (DMEM +10% fetal calf serum). […] Then, a complete medium containing (3H) L-leucine was used to incubate the cells for 24 hours causing the cells to take in isotope-labeled leucine and undertake protein synthesis. After 24 hours, a complete culture medium was substituted and used to incubate the cells for 24 hours to degrade short-lived proteins. After the short-lived proteins had been degraded, a complete culture medium to which the compound had been added was substituted and used to incubate the cells. The radiation intensity of the culture medium was tested at 0, 1, 2, 4, and 24 hours, respectively. At 24 hours, the cells were collected and the intensity of the isotope within the cells was tested, and the percent of long-lived protein degradation relative to the blank control group at different times after the action of the compound was computed. Compounds that increased the degradation of long-lived proteins were selected by means oft-test.

[1] = system: Ca2+-activated K+ channels; settings: 10-nM penitrem A; cited from earlier work
[2] = H4 cells transfected with GFP-polyQ-HA, 24 hours, screening concentration and dilutions 1:2.5, 1:5, 1:10, FIG. 2
[3] = H4-LC cells, 4 hours, immunoblot, FIG. 1

SMILES | Relative quantity of cells (%) (H4-LC3 cells; human) | polyQ degradation (GFP-polyQ-HA) | Increase of endogenous LC3 II / LC3 II/LC3 I percentage (LC3 II) | Relative fluorescent intensity of FYVE-RFP (%) (FYVE-RFP) | Percent relative degradation of long-lived proteins (%) (long-lived proteins; 1 h) | Percent relative degradation of long-lived proteins (%) (long-lived proteins; 2 h) | Percent relative degradation of long-lived proteins (%) (long-lived proteins; 4 h) | Percent relative degradation of long-lived proteins (%) (long-lived proteins; 24 h) | Blockage of Ca2+-activated K+ channels [1] [%] | Destruction of H4 cells (H4-LC3 cells; H4 cells) | polyQ degradation (GFP-polyQ-HA; [2]) | Increase of endogenous LC3 II / LC3 II/LC3 I percentage (LC3 II; [3]) | Relative fluorescent intensity of FYVE-RFP (%) (FYVE-RFP; H4-FYVE cells, 2 h) | Relative fluorescent intensity of FYVE-RFP (%) (FYVE-RFP; H4-FYVE cells, 4 h) | Relative fluorescent intensity of FYVE-RFP (%) (FYVE-RFP; H4-FYVE cells, 8 h)
COC(=O)C1=C(C)NC(C)=C(C(=O)OCCCN2CCC(c3ccccc3)(c3ccccc3)CC2)C1c1cccc([N+](=O)[O-])c1.Cl (stereo not shown) [Niguldipine] | 132.78 ± 18.11 | increased polyQ degradation | increase of endogenous LC3 II | 147.18 ± 25.39% and 148.26 ± 3.67% and 125.53 ± 2.84% | 71.65 ± 2.68 | 107.42 ± 2.72 | 105.68 ± 2.74 | 117.85 ± 1.98 |  |  |  |  |  |  | 
C=C(C)[C@H]1O[C@H]2CC[C@@]3(C)[C@@](O)(CC[C@H]4[C@@H]5OC(C)(C)[C@H]6C[C@@H]7C(=C)Cc8c(Cl)cc9[nH]c(c5c9c8[C@@]76O)[C@@]43C)[C@]23O[C@@H]3[C@H]1O [Penitrem A] |  |  |  |  | 92.88 ± 2.83 | 126.09 ± 0.47 | 132.13 ± 10.01 | 141.83 ± 1.25 | 100 | does not destroy H4 cells | increased polyQ degradation | increase of endogenous LC3 II | 121.40 ± 12.66 | 87.41 ± 5.90 | 72.71 ± 5.57
O=c1[nH]c2ccccc2n1C1CCN(CCCC(c2ccc(F)cc2)c2ccc(F)cc2)CC1 [Pimozide] |  |  |  |  | 129.13 ± 11.46 | 155.80 ± 9.22 | 152.01 ± 9.63 | 162.47 ± 3.50 |  |  | increased polyQ degradation | increase of endogenous LC3 II | 94.42 ± 4.71 | 103.96 ± 9.06 | 73.64 ± 12.18
CN1CCN(CCCN2c3ccccc3Sc3ccc(C(F)(F)F)cc32)CC1 [Trifluoperazine] |  |  |  |  | 76.62 ± 2.32 | 105.60 ± 5.01 | 109.00 ± 5.22 | 124.78 ± 2.05 |  |  | increased polyQ degradation | increase of endogenous LC3 II | 136.58 ± 15.74 | 111.52 ± 13.45 | 94.28 ± 2.87

— patent publication US20120077705A1, “Methods for Identifying Autophagy Inducing Compounds” (President and Fellows of Harvard College, priority 2007, published 2012)
